Three molecules from PMC11730591 (Scientific Reports, 2025) can be followed below.

Entries after “also recorded” stand apart in the source; their conditions may differ.

By Ki is commonly meant the equilibrium dissociation constant of an inhibitor or competing ligand from its target.

The target in experiment [1] is T1, α-glucosidase (Saccharomyces cerevisiae, UniProt P53341). Kind of experiment: In vitro α-glucosidase inhibition assay. To be noted: for α-Glucosidase inhibitory activity described in words: SAR discussion. The class given is biochemical.
For experiment [2], the target named is T1, α-glucosidase. Kind of experiment: Enzyme kinetic studies. It counts as biochemical.

T1 sequence (P53341 whole entry): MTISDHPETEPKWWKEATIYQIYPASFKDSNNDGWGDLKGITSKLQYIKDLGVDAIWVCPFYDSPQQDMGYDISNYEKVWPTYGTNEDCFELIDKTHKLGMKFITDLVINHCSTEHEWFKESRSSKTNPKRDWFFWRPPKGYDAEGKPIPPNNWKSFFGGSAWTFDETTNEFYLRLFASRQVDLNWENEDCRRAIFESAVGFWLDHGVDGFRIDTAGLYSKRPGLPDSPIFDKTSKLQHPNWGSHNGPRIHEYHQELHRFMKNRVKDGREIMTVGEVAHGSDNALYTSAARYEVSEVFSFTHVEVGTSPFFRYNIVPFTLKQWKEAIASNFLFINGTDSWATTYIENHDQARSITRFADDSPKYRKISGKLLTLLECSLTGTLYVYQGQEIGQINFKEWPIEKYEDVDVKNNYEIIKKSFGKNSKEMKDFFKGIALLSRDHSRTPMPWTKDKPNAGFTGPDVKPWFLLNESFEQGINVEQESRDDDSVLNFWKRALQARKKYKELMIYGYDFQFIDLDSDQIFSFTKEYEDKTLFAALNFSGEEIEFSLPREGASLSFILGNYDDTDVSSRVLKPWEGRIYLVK

On to `Cc1ccccc1NC(=O)CN1CCN(c2nc3ccccc3cc2/C=N/NC(N)=S)CC1` [Compound 7h, (E)-2-(4-(3-((2-carbamothioylhydrazono)methyl)quinolin-2-yl)piperazin-1-yl)-N-(o-tolyl)acetamide], for which the “α-Glucosidase inhibitory activity described in words” value in experiment [1] is “diminished activity”.

Take `COc1ccc(OC)c(NC(=O)CN2CCN(c3nc4ccccc4cc3/C=N/NC(N)=S)CC2)c1` [Compound 7j, (E)-2-(4-(3-((2-carbamothioylhydrazono)methyl)quinolin-2-yl)piperazin-1-yl)-N-(2,5-dimethoxyphenyl)acetamide]: the “Fold improvement in activity compared to acarbose” value in experiment [1] (versus acarbose as positive control) was 15 fold. Moreover, the Ki in experiment [2] worked out at 32 µM. The “Type of inhibition (Lineweaver-Burk plot)” value in experiment [2] (Km increased, Vmax unchanged with increasing inhibitor concentration) is “competitive inhibitor; also recorded: competitive inhibition”.

Regarding `COc1ccc(CNC(=O)CN2CCN(c3nc4ccccc4cc3/C=N/NC(N)=S)CC2)cc1` [Compound 7n, (E)-2-(4-(3-((2-carbamothioylhydrazono)methyl)quinolin-2-yl)piperazin-1-yl)-N-(4-methoxybenzyl)acetamide], the “α-Glucosidase inhibitory activity described in words” value in experiment [1] is reported as “poor activity”.
